Tested on: target transcript mRNA in A549 cells
Experiment: Level of mRNA of target transcript in A549 cells by quantitative RT-PCR (Tables 12 and 13)
Type: cell-based, human
Details: 24 h post-transfection; for mRNA knockdown of energy and metabolism gene target transcript, 0.1 nM / mRNA knockdown of transporter gene target transcript, 0.1 nM: 0.1 nM siRNA; for mRNA knockdown of energy and metabolism gene target transcript, 1 nM / mRNA knockdown of transporter gene target transcript, 1 nM: 1 nM siRNA
Method: A549 cells were transfected as described before with 0.1, 1.0 and 10 nM siRNA as listed in Tables 10 and 11 and the relative mRNA levels quantified 24 h post-transfection. RNA was purified from cells using Trizol® extraction as per the manufacturer's protocol (Invitrogen). cDNA was prepared by digesting approximately 200 ng purified RNA with DNAse I (Invitrogen) for 15 minutes at room temperature, followed by 15 minutes at 65° C. in the presence of 25 mM EDTA. 30 ng random primers were added and incubated for 10 minutes at 65° C., 1 minute on ice; Superscript® III polymerase (Invitrogen) was added in presence of 5 nM DTT (Invitrogen) and 1 mM deoxyribonucleotides (Invitrogen), and the reaction incubated at 25° C. for 5 minutes, followed by an hour at 50° C. cDNA was diluted 1:3 in 10 mM Tris pH 7.0, and quantitative RT-PCR carried out on an ABI Prism 7900HT (Applied Biosciences, Inc., Foster City, Calif.) using FastStart TaqMan SYBRGreen (Roche, Basel, Switzerland) or Platinum SYBR Green (Invitrogen) and 360 nM of the primers specific for gene targets and housekeeping genes HPRT and Lamin. Reduction in target mRNA levels following siRNA transfection are given in Tables 12 and 13, together with the gene specific primer sequences. Primer sequences used for the housekeeping genes HPRT and Lamin are given in SEQ ID NO: 4885-4888.

Substance	mRNA knockdown of energy and metabolism gene target transcript, 0.1 nM	mRNA knockdown of energy and metabolism gene target transcript, 1 nM	mRNA knockdown of transporter gene target transcript, 0.1 nM	mRNA knockdown of transporter gene target transcript, 1 nM
3578 (TGAAGCGGTTTTTCTCCAAGTACTC; chemistry not given here) [compound 3578]	+ (50-70% mRNA knockdown)	++ (70-90% mRNA knockdown)		
3579 (GTGAAGCGGTTTTTCTCCAAGTACTC; chemistry not given here) [compound 3579]	++ (70-90% mRNA knockdown)	+++ (>90% mRNA knockdown)		
3580 (AGTGAAGCGGTTTTTCTCCAAGTACTC; chemistry not given here) [compound 3580]	++ (70-90% mRNA knockdown)	++ (70-90% mRNA knockdown)		
3584 (ACAGAGGAGCAAGATACAGGC; chemistry not given here) [compound 3584]	++ (70-90% mRNA knockdown)	++ (70-90% mRNA knockdown)		
3585 (AACAGAGGAGCAAGATACAGGC; chemistry not given here) [compound 3585]	++ (70-90% mRNA knockdown)	++ (70-90% mRNA knockdown)		
3586 (AAACAGAGGAGCAAGATACAGGC; chemistry not given here) [compound 3586]	++ (70-90% mRNA knockdown)	+++ (>90% mRNA knockdown)		
3592 (TGCCAAAAACAGAGGAGCAAGATACAGGC; chemistry not given here) [compound 3592]	− (<50% mRNA knockdown)	+ (50-70% mRNA knockdown)		
3593 (TTGCCAAAAACAGAGGAGCAAGATACAGGC; chemistry not given here) [compound 3593]	− (<50% mRNA knockdown)	+ (50-70% mRNA knockdown)		
3594 (CAGGAAGATCCTGCTCATCAG; chemistry not given here) [compound 3594]	− (<50% mRNA knockdown)	+ (50-70% mRNA knockdown)		
3595 (ACAGGAAGATCCTGCTCATCAG; chemistry not given here) [compound 3595]	+ (50-70% mRNA knockdown)	++ (70-90% mRNA knockdown)		
3596 (AACAGGAAGATCCTGCTCATCAG; chemistry not given here) [compound 3596]	+ (50-70% mRNA knockdown)	++ (70-90% mRNA knockdown)		
3597 (CAACAGGAAGATCCTGCTCATCAG; chemistry not given here) [compound 3597]	+ (50-70% mRNA knockdown)	++ (70-90% mRNA knockdown)		
SEQ ID NO: 4914: siRNA targeting SLC19A2 (ThTr1) (chain 1 TTATATAACCAACTGCAAACACAGC; chain 2 UUAUAUAACCAACUGCAAACACAGC; chemistry not given here; one strand in two spellings)			++ (70-90% mRNA knockdown)	+++ (>90% mRNA knockdown)
SEQ ID NO: 4915: siRNA targeting SLC19A2 (ThTr1) (chain 1 ATGACATTCAGGCTGAACAGCGACC; chain 2 AUGACAUUCAGGCUGAACAGCGACC; chemistry not given here; one strand in two spellings)			++ (70-90% mRNA knockdown)	++ (70-90% mRNA knockdown)

Source: patent publication US20080145313A1, “Compositions and Methods for the Treatment and Prevention of Neoplastic Disorders” (Genesis Research & Development Corporation Limited, priority 2006, published 2008)
